Assays:
Details in all cases: 72 h
Vero E6 [1] = assay: drug sensitivity score (DSS) for viability; higher = more toxic; extreme values may be limits of the assay
Calu-3 [2] = assay: as above
HepG2 [3] = assay: as above
Caco-2 [4] = assay: as above
U2OS [5] = assay: as above
Caco-2 [6] = assay: cell viability relative to DMSO; higher = less toxic
U2OS [7] = assay: as above
Calu-3 [8] = assay: as above
HepG2 [9] = assay: as above
Caco-2 [10] = assay: relative viability EC50 (midpoint between 100% and the lowest measured viability); higher = less toxic
U2OS [11] = assay: as above
Calu-3 [12] = assay: as above
HepG2 [13] = assay: as above
Vero E6 [14] = assay: cell viability relative to DMSO; higher = less toxic

Row | Structure (SMILES) | drug sensitivity score (Vero E6 [1]) | drug sensitivity score (Calu-3 [2]) | drug sensitivity score (HepG2 [3]) | drug sensitivity score (Caco-2 [4]) | drug sensitivity score (U2OS [5]) | cell viability (Caco-2 [6]; 1 nM) | cell viability (Caco-2 [6]; 10 nM) | cell viability (Caco-2 [6]; 100 nM) | cell viability (Caco-2 [6]; 1000 nM) | cell viability (Caco-2 [6]; 10000 nM) | cell viability (U2OS [7]; 1 nM) | cell viability (U2OS [7]; 10 nM) | cell viability (U2OS [7]; 100 nM) | cell viability (U2OS [7]; 1000 nM) | cell viability (U2OS [7]; 10000 nM) | cell viability (Calu-3 [8]; 1 nM) | cell viability (Calu-3 [8]; 10 nM) | cell viability (Calu-3 [8]; 100 nM) | cell viability (Calu-3 [8]; 1000 nM) | cell viability (Calu-3 [8]; 10000 nM) | cell viability (HepG2 [9]; 1 nM) | cell viability (HepG2 [9]; 10 nM) | cell viability (HepG2 [9]; 100 nM) | cell viability (HepG2 [9]; 1000 nM) | cell viability (HepG2 [9]; 10000 nM) | relative viability EC50 (Caco-2 [10]) | relative viability EC50 (U2OS [11]) | relative viability EC50 (Calu-3 [12]) | relative viability EC50 (HepG2 [13]) | cell viability (Vero E6 [14]; 1 nM) | cell viability (Vero E6 [14]; 10 nM) | cell viability (Vero E6 [14]; 100 nM) | cell viability (Vero E6 [14]; 1000 nM) | cell viability (Vero E6 [14]; 10000 nM)
1 | C[C@H]1O[C@H](O[C@H]2[C@H](O)[C@@H](O)[C@@H](O[C@H]3[C@H](O)[C@@H](O)C(O)O[C@@H]3CO)O[C@@H]2CO)[C@H](O)[C@@H](O)[C@@H]1N[C@H]1C=C(CO)[C@@H](O)[C@H](O)[C@H]1O (stereo not given in full) [acarbose] | 0 | 0 | 0 |  |  |  |  |  |  |  |  |  |  |  |  |  |  |  |  |  |  |  |  |  |  |  |  |  |  |  |  |  |  | 
2 | CNC1CCCN(c2c(F)cc3c(=O)c(C(=O)O)cn(C4CC4)c3c2OC)C1 (stereo not given) [balofloxacin] |  | 0 | 0 | 0 | 0 | 105% | 98.3% | 98.4% | 93.3% | 99.9% | 113% | 102% | 97.5% | 103% | 93.2% | 104% | 94.8% | 101% | 97.7% | 102% | 114% | 97.5% | 93.1% | 104% | 104% | > 10 µM | > 10 µM | > 10 µM | > 10 µM |  |  |  |  | 
3 | CCN(CCCOc1ccc2c(Nc3cc(CC(=O)Nc4cccc(F)c4)[nH]n3)ncnc2c1)CCOP(=O)(O)O [barasertib] | 1.9 | 0 | 6 | 0.4 | 0 | 99.4% | 99.7% | 79.1% | 102% | 82.9% | 101% | 101% | 98% | 100% | 89.7% | 112% | 94.2% | 102% | 92.2% | 91.3% | 93.4% | 94.7% | 70.7% | 82.9% | 75% | > 10 µM | > 10 µM | > 10 µM |  | 94.3% | 96.9% | 101% | 93.7% | 74.2%
4 | Cc1c(-c2ccc(-c3ccccc3F)cc2)nc2ccc(F)cc2c1C(=O)O [brequinar] | 6.6 | 0 | 8.3 | 0 | 0 | 123% | 93.8% | 93.4% | 105% | 111% | 98.2% | 93.1% | 103% | 103% | 103% | 96.4% | 93.9% | 101% | 106% | 99.6% | 105% | 104% | 95.6% | 59.2% | 41.8% | > 10 µM | > 10 µM | > 10 µM | 0.563 µM | 92.9% | 93.3% | 93.5% | 66.3% | 64.2%
5 | O=c1[nH]c(=O)c2ccccc2o1 [carsalam] |  | 0 | 0 | 0 | 0 | 99.5% | 95.4% | 92.5% | 104% | 98.8% | 98.9% | 102% | 97.3% | 102% | 103% | 89.6% | 93.5% | 104% | 106% | 108% | 96% | 100% | 103% | 98.1% | 101% | > 10 µM | > 10 µM | > 10 µM | > 10 µM |  |  |  |  | 
6 | CN[C@@H]1[C@H](O[C@H]2[C@H](O[C@H]3[C@H](O)[C@@H](O)[C@H](NC(=N)N)[C@@H](O)[C@@H]3NC(=N)N)O[C@@H](C)[C@]2(O)CO)O[C@@H](CO)[C@H](O)[C@H]1O [dihydrostreptomycin] |  | 0 | 0 | 0 | 0 | 99.2% | 94.3% | 97.6% | 93.8% | 104% | 102% | 105% | 97.3% | 107% | 97.3% | 97.8% | 97.1% | 106% | 96.9% | 94.8% | 109% | 100% | 101% | 105% | 98.5% | > 10 µM | > 10 µM | > 10 µM | > 10 µM |  |  |  |  | 
7 | O=C(Nc1nc2cccc(-c3ccc(CN4CCS(=O)(=O)CC4)cc3)n2n1)C1CC1 [filgotinib] |  | 0 | 2.3 | 0 |  | 111% | 104% | 93.2% | 95.7% | 96.5% |  |  |  |  |  | 95.7% | 105% | 98.2% | 87.5% | 97.4% | 100% | 99.1% | 96.4% | 102% | 53.4% | > 10 µM |  | > 10 µM |  |  |  |  |  | 
8 | CC(=O)O[C@H]1C[C@@]2(C)[C@@H](C[C@@H](O)[C@H]3[C@@]4(C)CC[C@@H](O)[C@@H](C)[C@@H]4CC[C@@]32C)/C1=C(\CCC=C(C)C)C(=O)O [fusidic-acid] |  | 0.3 |  | 0 | 0 | 103% | 116% | 89.6% | 104% | 99.5% | 98.8% | 104% | 99.6% | 106% | 100% | 96% | 109% | 93.7% | 93.5% | 86.1% |  |  |  |  |  | > 10 µM | > 10 µM | > 10 µM |  |  |  |  |  | 
